According to patent publication US10358454B2, “Marinopyrrole derivatives and methods of making and using same” (H. LEE MOFFITT CANCER CENTER AND RESEARCH INSTITUTE, INC., priority 2014, dated 2019):
“Also recorded” adds a separate entry of the source. Where two headings read alike, the source gives them in different places. One block for each compound: values may come before it.

How the values were obtained:
Bcl-xL/Bim = Bcl-xL/Bim (Homo sapiens, UniProt Q07817); experiment: Bcl-xL/Bim ELISA (GST-Bcl-xL binding to biotinylated Bim BH3 peptide)
Chain of Bcl-xL/Bim (Q07817 whole entry): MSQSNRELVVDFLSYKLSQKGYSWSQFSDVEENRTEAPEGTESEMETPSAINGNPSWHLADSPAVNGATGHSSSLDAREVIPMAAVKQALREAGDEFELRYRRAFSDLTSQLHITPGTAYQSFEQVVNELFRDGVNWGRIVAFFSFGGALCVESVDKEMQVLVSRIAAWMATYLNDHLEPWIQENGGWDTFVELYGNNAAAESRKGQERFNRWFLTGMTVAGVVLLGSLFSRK
Method: (§1) ELISAs were performed using a modified version of a previously described procedure (Doi K et al. J. Biol. Chem. 2012, 287, 10224-10235). Briefly, 40 nM of biotinylated Bim BH3 peptide (Biomatik) in SuperBlock blocking buffer (Pierce) was incubated in high-binding capacity streptavidin-coated plates (Pierce) for 2 h. Compounds were diluted in 120 μl of PBS containing 10 nM of GST-Mcl-1 or GST-Bcl-xL in 1.5 mL tubes for 15 min. Wells were washed with wash buffer (PBS containing 0.05% Tween-20) and then 100 μL of the compound/GST-protein mixture was transferred to the wells. The plates were incubated for 2 h, and then the wells were washed with wash buffer. HRP-conjugated anti-GST antibody (Bethyl Laboratories) was diluted 1:2000 in SuperBlock and 100 μL was transferred to each well. The plate was incubated for 1 h, and then the wells were washed with wash buffer followed by PBS. 100 μL of SureBlue TMB Microwell Peroxidase Substrate (VWR) was added to each well and plates were developed for 5-10 min. 100 μL of 1 N HCl was added to each well to stop the reaction and absorbance was read at 450 nm using a μQuant plate reader (Bio-Tek).
(§2) ELISAs were performed using a similar procedure as previously described (Doi K, et al. J. Biol. Chem. 2012, 287, 10224-10235). Briefly, 40 nM of biotinylated Bim BH3 peptide (Biomatik) in SuperBlock blocking buffer (Pierce) was incubated in high-binding capacity streptavidin-coated plates (Pierce) for 2 h. Compounds were diluted in 120 μl of PBS containing 10 nM of GST-Mcl-1 or GST-Bcl-xL in 1.5 mL tubes for 15 min. Wells were washed with wash buffer (PBS containing 0.05% Tween-20) and then 100 μL of the compound/GST-protein mixture was transferred to the wells. The plates were incubated for 2 h, and then wells were washed with wash buffer. HRP-conjugated anti-GST antibody (Bethyl Laboratories) was diluted 1:2000 in SuperBlock and 100 μL was transferred to each well. The plate was incubated for 1 h, and then wells were washed with wash buffer followed by PBS. 100 μL of SureBlue TMB Microwell Peroxidase Substrate (VWR) was added to each well and plates were developed for 5-10 min. 100 μL of 1 N HCl was added to each well to stop the reaction and absorbance was read at 450 nm using μQuant plate reader (Bio-Tek).

[1] = system: human breast cancer MDA-MB-468 cells; experiment: Western blotting of MDA-MB-468 cells treated with marinopyrrole derivatives (Mcl-1, Bim, caspase 3); type: cell-based; conditions: 10 μM for 16 h
Method: The cells were then processed for western blotting according to a previously described methods (Balasis M E et al. Clin. Cancer Res. 2011, 17, 2852-2862). […] However, none of the cyclic marinopyrroles were active in intact cells.
as §1

Mcl-1/Bim = Mcl-1/Bim (Homo sapiens, UniProt Q07820); experiment: Mcl-1/Bim ELISA (GST-Mcl-1 binding to biotinylated Bim BH3 peptide); conditions: for selectivity for Mcl-1 over Bcl-xL (Mcl-1/Bim over Bcl-xL/Bim): ratio of ELISA IC50 values
Chain of Mcl-1/Bim (Q07820 whole entry): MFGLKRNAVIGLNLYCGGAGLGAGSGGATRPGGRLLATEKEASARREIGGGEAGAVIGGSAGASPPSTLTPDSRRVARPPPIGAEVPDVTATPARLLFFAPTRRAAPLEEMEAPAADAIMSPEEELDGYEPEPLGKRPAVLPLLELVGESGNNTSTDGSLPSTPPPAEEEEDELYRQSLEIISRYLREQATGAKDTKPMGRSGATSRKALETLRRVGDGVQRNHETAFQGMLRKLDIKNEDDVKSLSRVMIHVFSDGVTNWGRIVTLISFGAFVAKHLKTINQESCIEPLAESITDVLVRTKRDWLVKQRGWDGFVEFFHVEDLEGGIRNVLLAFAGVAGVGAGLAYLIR
Method: as §1, §2

[2] = Table 3-A structure I, Bcl-xL at 10 nM, n ≥ 3, read-out: Bcl-xL-Bim IC50 (average ± SEM)
[3] = read-out: IC50 to inhibit Bcl-xL/Bim binding
[4] = Table 1, Bcl-xL at 10 nM, n ≥ 3, read-out: Bcl-xL-Bim IC50 (average ± SEM)
[5] = Table 1, Mcl-1 at 10 nM, n ≥ 3, read-out: Mcl-1-Bim IC50 (average ± SEM)
[6] = Table 2-A, n ≥ 3, read-out: Bcl-xL/Bim IC50 (average ± SEM)
[7] = Table 3-B structure II, n ≥ 3, read-out: Bcl-xL-Bim IC50 (average ± SEM)
[8] = Table 2-A, n ≥ 3, read-out: Mcl-1/Bim IC50 (average ± SEM)
[9] = Table 3-B structure II, n ≥ 3, read-out: Mcl-1-Bim IC50 (average ± SEM)
[10] = read-out: IC50 to inhibit the binding of Mcl-1 to Bim
[11] = Table 3-A structure I, Mcl-1 at 10 nM, n ≥ 3, read-out: Mcl-1-Bim IC50 (average ± SEM)
[12] = Table 2-B, n ≥ 3 unless specified, read-out: Bcl-xL/Bim IC50 (average ± SEM)
[13] = Table 2-B, n ≥ 3, read-out: Mcl-1/Bim IC50 (average ± SEM)

Compound: CCOP(=O)(OCC)c1ccc(C(=O)c2[nH]c(Cl)c(Cl)c2-n2c(C(=O)c3ccc(P(=O)(OCC)OCC)cc3O)cc(Cl)c2Cl)c(O)c1 [Compound I-19, tetraethyl((4,4′,5,5′-tetrachloro-1′H-[1,3′-bipyrrole]-2,2′-dicarbonyl)bis(3-hydroxy-4,1-phenylene))bis(phosphonate)]
- IC50 (Bcl-xL/Bim; [2]): > 100 µM
- IC50 (Bcl-xL/Bim; [3]): > 100 µM
- effect on levels of Mcl-1 and Bim and cleavage of caspase 3 [1]: little effect on Mcl-1, Bim or caspase 3
- IC50 (Mcl-1/Bim; read-out: Mcl-1-Bim IC50 (average ± SEM)): 7.7 ± 2.2 µM

Compound: O=C(c1ccccc1O)c1[nH]c(Cl)c(Cl)c1-n1c(C(=O)c2ccccc2O)cc(Cl)c1Cl (single isomer, unassigned) [(−)-1, reference compound]
- effect on levels of Mcl-1 and Bim and cleavage of caspase 3 [1]: able to decrease Mcl-1 and Bim and to cleave caspas 3

- IC50 (Bcl-xL/Bim; [4]): 2.3 ± 1.1 µM
- fold more potent than (±)-1 (1) against Bcl-xL/Bim (Bcl-xL/Bim; relative to (±)-1): seven-fold
- IC50 (Mcl-1/Bim; [5]): 1.4 ± 0.3 µM
- fold more potent than (±)-1 (1) against Mcl-1/Bim (Mcl-1/Bim; relative to (±)-1): six
Compound: O=C1c2ccc(OS(=O)(=O)C(F)(F)F)cc2Oc2c(Cl)cc(C(=O)c3ccc(OS(=O)(=O)C(F)(F)F)cc3O)n2-c2c1[nH]c(Cl)c2Cl [IV-1, 3-Hydroxy-4-(2,3,7-trichloro-13-oxo-10-(((trifluoromethyl)sulfonyl)oxy)-1,13 dihydrobenzo[g]di-pyrrolo[2,1-b:3′,2′-d][1,3]oxazocine-5-carbonyl)phenyl trifluoromethanesulfonate]

- IC50 (Bcl-xL/Bim; [6]): > 50 µM
- IC50 (Bcl-xL/Bim; [7]): > 50 µM
- IC50 (Mcl-1/Bim; [8]): 16.5 ± 1.9 µM
- IC50 (Mcl-1/Bim; [9]): 16.5 ± 1.9 µM
- selectivity for Mcl-1 over Bcl-xL (Mcl-1/Bim over Bcl-xL/Bim) (Mcl-1/Bim): 3.0 fold
- IC50 (Mcl-1/Bim; [10]): 16.5 µM
Compound: O=C(O)Cn1cc(-c2ccc(C(=O)c3[nH]c(Cl)c(Cl)c3-n3c(C(=O)c4ccc(-c5cn(CC(=O)O)nn5)cc4O)cc(Cl)c3Cl)c(O)c2)nn1 [Compound 1-26, 2,2′-(4,4′-((4,4′,5,5′-Tetrachloro-1′H-1,3′-bipyrrole-2,2′-dicarbonyl)bis(3-hydroxy-4,1-phenylene))bis(1H-1,2,3-triazole-4,1-diyl))diacetic acid]
- activity against Bcl-xL/Bim in words (Bcl-xL/Bim): not tolerated; also recorded: not active

- IC50 (Bcl-xL/Bim; [2]): > 100 µM
- IC50 (Bcl-xL/Bim; [3]): > 100 µM
- activity against Mcl-1/Bim in words (Mcl-1/Bim): showed activity
- IC50 (Mcl-1/Bim; [11]): 16.9 ± 2.3 µM
Compound: COC(=O)c1ccc(C(=O)c2[nH]c(Cl)c(Cl)c2-n2c(C(=O)c3ccc(C(=O)OC)cc3O)cc(Cl)c2Cl)c(O)c1 [Compound I-17, Dimethyl-4,4′-(4,4′,5,5′-tetrachloro-1′H-[1,3′-bipyrrole]-2,2′-dicarbonyl)bis(3-hydroxybenzoate)]
- effect on levels of Mcl-1 and Bim and cleavage of caspase 3 [1]: significant decrease in the levels of Mcl-1 and Bim, and cleavage of caspase 3

Compound: O=C(O)c1ccc(C(=O)c2cc(Cl)c3n2-c2c([nH]c(Cl)c2Cl)C(=O)c2ccc(C(=O)O)cc2O3)c(O)c1 [IV-4, 5-(4-Carboxy-2-hydroxybenzoyl)-2,3,7-trichloro-13-oxo-1,13-dihydrobenzo[g]dipyrrolo[2,1-b:3′,2′-d][1,3]oxazocine-10-carboxylic acid]
- IC50 (Bcl-xL/Bim; [4]): > 100 µM
- IC50 (Bcl-xL/Bim; [12]): 18.3 ± 3 µM
- IC50 (Bcl-xL/Bim; Table 3-C structure IV, n ≥ 3 (IV-1: n = 2), read-out: Bcl-xL-Bim IC50 (average ± SEM)): 18.3 ± 3 µM
- IC50 (Mcl-1/Bim; [5]): 66.6 ± 2.6 µM
- IC50 (Mcl-1/Bim; [13]): 3.9 ± 1.1 µM
- IC50 (Mcl-1/Bim; Table 3-C structure IV, n ≥ 3, read-out: Mcl-1-Bim IC50 (average ± SEM)): 3.9 ± 1.1 µM

Compound: O=C(O)CSc1ccc(C(=O)c2[nH]c(Cl)c(Cl)c2-n2c(C(=O)c3ccc(SCC(=O)O)cc3O)cc(Cl)c2Cl)c(O)c1 [Compound 1-15]
- IC50 (Bcl-xL/Bim; [12]): > 100 µM
- IC50 (Bcl-xL/Bim; [2]): > 100 µM
- IC50 (Bcl-xL/Bim; [3]): > 100 µM
- fold loss of potency against Mcl-1/Bim (Mcl-1/Bim; 1-15 and 1-13 vs 1-10, 1-14 vs 1-11, 1-16 vs 1-15, 1-12 vs 1-9, 1-22, 1-21, 1-20 vs 1-23, 1-37 and N-Me methoxy analogue vs (±)-1): 8.7 fold
- IC50 (Mcl-1/Bim; [13]): 6.1 ± 1.3 µM
- IC50 (Mcl-1/Bim; [11]): 6.1 ± 1.3 µM
- selectivity profile Mcl-1 vs Bcl-xL in words (Mcl-1/Bim; from Mcl-1/Bim and Bcl-xL/Bim ELISA): much more selective for Mcl-1 over Bcl-xL
- selectivity for Mcl-1 over Bcl-xL (Mcl-1/Bim over Bcl-xL/Bim) (Mcl-1/Bim): over 16 fold
- IC50 (Mcl-1/Bim; read-out: IC50 to disrupt Mcl-1/Bim binding): 6.1 µM

- IC50 (Bcl-xL/Bim; [6]): > 100 µM
- IC50 (Bcl-xL/Bim; [7]): > 100 µM
- IC50 (Mcl-1/Bim; [8]): 18.4 ± 0.3 µM
- IC50 (Mcl-1/Bim; [9]): 18.4 ± 0.3 µM
- selectivity for Mcl-1 over Bcl-xL (Mcl-1/Bim over Bcl-xL/Bim) (Mcl-1/Bim): 5.4 fold
- IC50 (Mcl-1/Bim; [10]): 18.4 µM
Compound: CCOC(=O)Cn1cc(-c2ccc(C(=O)c3[nH]c(Cl)c(Cl)c3-n3c(C(=O)c4ccc(-c5cn(CC(=O)OCC)nn5)cc4O)cc(Cl)c3Cl)c(O)c2)nn1 [Compound 1-24, Diethyl 2,2′-(4,4′-((4,4′,5,5′-tetrachloro-1′H-1,3′-bipyrrole-2,2′-dicarbonyl)bis(3-hydroxy-4,1-phenylene))bis(1H-1,2,3-triazole-4,1-diyl))diacetate]
- activity against Bcl-xL/Bim in words (Bcl-xL/Bim): not tolerated; also recorded: not active
